Results as given in ChEMBL document CHEMBL2440076, “New triarylpyrazoles as broad-spectrum anticancer agents: design, synthesis, and biological evaluation” (Eur J Med Chem, 2013).

Experiments:
Type in all cases: functional
[1] = system: SF-295; experiment: Growth inhibition of human SF295 cells assessed as cell growth at 3X10'-7 M after 48 hrs by sulforhodamine B assay; settings: SF-295, 48 h, read-out: Activity
[2] = system: BT-549; experiment: Growth inhibition of human BT549 cells assessed as cell growth at 3X10'-8 M after 48 hrs by sulforhodamine B assay; settings: BT-549, 48 h, read-out: Activity
[3] = system: DU-145; experiment: Growth inhibition of human DU145 cells assessed as cell growth at 3X10'-8 M after 48 hrs by sulforhodamine B assay; settings: DU-145, 48 h, read-out: Activity
[4] = system: 786-0; experiment: Growth inhibition of human 786-0 cells assessed as cell growth at 3X10'-8 M after 48 hrs by sulforhodamine B assay; settings: 786-0, 48 h, read-out: Activity
[5] = system: DU-145; experiment: Growth inhibition of human DU145 cells assessed as cell growth at 3X10'-5 M after 48 hrs by sulforhodamine B assay; settings: DU-145, 48 h, read-out: Activity
[6] = system: CCRF-CEM; experiment: Growth inhibition of human CCRF-CEM cells assessed as cell growth at 3X10'-9 M after 48 hrs by sulforhodamine B assay; settings: read-out: Activity
[7] = system: OVCAR-3; experiment: Growth inhibition of human OVCAR3 cells assessed as cell growth at 3X10'-8 M after 48 hrs by sulforhodamine B assay; settings: OVCAR-3, 48 h, read-out: Activity
[8] = system: SK-MEL-28; experiment: Growth inhibition of human SK-MEL-28 cells assessed as cell growth at 3X10'-8 M after 48 hrs by sulforhodamine B assay; settings: SK-MEL-28, 48 h, read-out: Activity
[9] = system: SF-539; experiment: Growth inhibition of human SF539 cells assessed as cell growth at 3X10'-8 M after 48 hrs by sulforhodamine B assay; settings: SF-539, 48 h, read-out: Activity
[10] = system: NCI-H23; experiment: Growth inhibition of human NCI-H23 cells assessed as cell growth at 3X10'-8 M after 48 hrs by sulforhodamine B assay; settings: NCI-H23, 48 h, read-out: Activity
[11] = system: SR; experiment: Growth inhibition of human SR cells assessed as cell growth at 3X10'-8 M after 48 hrs by sulforhodamine B assay; settings: read-out: Activity
[12] = system: MDA-MB-468; experiment: Growth inhibition of human MDA-MB-468 cells assessed as cell growth at 3X10'-9 M after 48 hrs by sulforhodamine B assay; settings: MDA-MB-468, 48 h, read-out: Activity
[13] = system: OVCAR-5; experiment: Growth inhibition of human OVCAR5 cells assessed as cell growth at 3X10'-5 M after 48 hrs by sulforhodamine B assay; settings: OVCAR-5, 48 h, read-out: Activity
[14] = system: CAKI-1; experiment: Growth inhibition of human CAKI-1 cells assessed as cell growth at 3X10'-9 M after 48 hrs by sulforhodamine B assay; settings: CAKI-1, 48 h, read-out: Activity
[15] = system: OVCAR-3; experiment: Growth inhibition of human OVCAR3 cells assessed as cell growth at 3X10'-5 M after 48 hrs by sulforhodamine B assay; settings: OVCAR-3, 48 h, read-out: Activity
[16] = system: IGROV-1; experiment: Growth inhibition of human IGROV1 cells assessed as cell growth at 3X10'-5 M after 48 hrs by sulforhodamine B assay; settings: IGROV-1, 48 h, read-out: Activity
[17] = system: M14; experiment: Growth inhibition of human M14 cells assessed as cell growth at 3X10'-5 M after 48 hrs by sulforhodamine B assay; settings: M14, 48 h, read-out: Activity
[18] = system: A549; experiment: Growth inhibition of human A549/ATCC cells assessed as cell growth at 3X10'-5 M after 48 hrs by sulforhodamine B assay; settings: A549, 48 h, read-out: Activity
[19] = system: PC-3; experiment: Growth inhibition of human PC3 cells assessed as cell growth at 3X10'-6 M after 48 hrs by sulforhodamine B assay; settings: PC-3, 48 h, read-out: Activity
[20] = system: SF-268; experiment: Growth inhibition of human SF268 cells assessed as cell growth at 3X10'-9 M after 48 hrs by sulforhodamine B assay; settings: SF-268, 48 h, read-out: Activity
[21] = system: NCI-H460; experiment: Growth inhibition of human NCI-H460 cells assessed as cell growth at 3X10'-9 M after 48 hrs by sulforhodamine B assay; settings: NCI-H460, 48 h, read-out: Activity
[22] = system: CAKI-1; experiment: Growth inhibition of human CAKI-1 cells assessed as cell growth at 3X10'-6 M after 48 hrs by sulforhodamine B assay; settings: CAKI-1, 48 h, read-out: Activity
[23] = system: SK-OV-3; experiment: Growth inhibition of human SKOV3 cells assessed as cell growth at 3X10'-6 M after 48 hrs by sulforhodamine B assay; settings: SK-OV-3, 48 h, read-out: Activity
[24] = system: SK-MEL-28; experiment: Growth inhibition of human SK-MEL-28 cells assessed as cell growth at 3X10'-6 M after 48 hrs by sulforhodamine B assay; settings: SK-MEL-28, 48 h, read-out: Activity
[25] = system: MDA-MB-435; experiment: Growth inhibition of human MDA-MB-435 cells assessed as cell growth at 3X10'-6 M after 48 hrs by sulforhodamine B assay; settings: MDA-MB-435, 48 h, read-out: Activity
[26] = system: NCI-H522; experiment: Growth inhibition of human NCI-H522 cells assessed as cell growth at 3X10'-6 M after 48 hrs by sulforhodamine B assay; settings: NCI-H522, 48 h, read-out: Activity
[27] = system: NCI-H226; experiment: Growth inhibition of human NCI-H226 cells assessed as cell growth at 3X10'-6 M after 48 hrs by sulforhodamine B assay; settings: NCI-H226, 48 h, read-out: Activity
[28] = system: A549; experiment: Growth inhibition of human A549/ATCC cells assessed as cell growth at 3X10'-6 M after 48 hrs by sulforhodamine B assay; settings: A549, 48 h, read-out: Activity
[29] = system: SR; experiment: Growth inhibition of human SR cells assessed as cell growth at 3X10'-6 M after 48 hrs by sulforhodamine B assay; settings: read-out: Activity
[30] = system: RPMI-8226; experiment: Growth inhibition of human RPMI8226 cells assessed as cell growth at 3X10'-6 M after 48 hrs by sulforhodamine B assay; settings: RPMI-8226, 48 h, read-out: Activity
[31] = system: MOLT-4; experiment: Growth inhibition of human MOLT4 cells assessed as cell growth at 3X10'-6 M after 48 hrs by sulforhodamine B assay; settings: MOLT-4, 48 h, read-out: Activity
[32] = Growth inhibition of human Hs 578T cells assessed as cell growth at 3X10'-7 M after 48 hrs by sulforhodamine B assay; settings: read-out: Activity
[33] = system: MDA-MB-231; experiment: Growth inhibition of human MDA-MB-231 cells assessed as cell growth at 3X10'-7 M after 48 hrs by sulforhodamine B assay; settings: MDA-MB-231, 48 h, read-out: Activity
[34] = system: SN12C; experiment: Growth inhibition of human SN12C cells assessed as cell growth at 3X10'-7 M after 48 hrs by sulforhodamine B assay; settings: read-out: Activity

O=C(Nc1cccc(-n2cc(-c3ccncc3)c(-c3ccc(Cl)c(O)c3)n2)c1)Nc1cccc(C(F)(F)F)c1
growth at 0.3 µM [1]: 88% | growth at 0.03 µM [2]: 96% | growth at 0.03 µM [3]: 99% | growth at 0.03 µM [4]: 96% | growth at 30 µM [5]: 9% | growth at 0.003 µM [6]: 97% | growth at 0.03 µM [7]: 93% | growth at 0.03 µM [8]: 100% | growth at 0.03 µM [9]: 100% | growth at 0.03 µM [10]: 94% | growth at 0.03 µM [11]: 99% | growth at 0.003 µM [12]: 95% | growth at 30 µM [13]: 22% | growth at 0.003 µM [14]: 98% | growth at 30 µM [15]: -25% | growth at 30 µM [16]: 3% | growth at 30 µM [17]: -20% | growth at 30 µM [18]: 11% | growth at 3 µM [19]: 13% | growth at 0.003 µM [20]: 95% | growth at 0.003 µM [21]: 99% | growth at 3 µM [22]: 35% | growth at 3 µM [23]: 58% | growth at 3 µM [24]: 55% | growth at 3 µM [25]: 26% | growth at 3 µM [26]: 25% | growth at 3 µM [27]: 66% | growth at 3 µM [28]: 24% | growth at 3 µM [29]: 33% | growth at 3 µM [30]: 25% | growth at 3 µM [31]: 36% | growth at 0.3 µM [32]: 89% | growth at 0.3 µM [33]: 95% | growth at 0.3 µM [34]: 99%
